Reference: patent US6057348A (Oregon State University, priority 1998, dated 2000)
“Also recorded” adds a separate entry of the source.

Tests used:
tubulin [1] = assay: Inhibition of tubulin polymerization (turbidimetric, 350 nm); assay type: biochemical, bovine; conditions: 1.0 mg/mL tubulin, 0.8 M glutamate, 30°, 20 minutes; ± SD
Description: (§1) Electrophoretically homogeneous bovine brain tubulin was prepared as described previously (20). Nonradiolabeled colchicine was obtained from Sigma and [^3 H]colchicine from Dupont-NEN. Stock 2.0 M solutions of monosodium glutamate were adjusted to pH 6.6 with HCl. MCF-7 breast cancer cells were obtained from Dr. D. Scudiero, National Cancer Institute. Curacin A is referred to in the tables provided below, and was obtained as stated in Gerwick's U.S. Pat. No. 5,324,739. All data presented for curacin A represent averages obtained in contemporaneous experiments with natural and synthetic drug. All drugs were dissolved in dimethyl sulfoxide, and control reaction mixtures contained an equivalent amount of the solvent.
Tubulin polymerization was followed turbidimetrically at 350 nm in Gilford model 250 spectrophotometers equipped with electronic temperature controllers. All concentrations refer to the final reaction volume of 0.25 mL, although the preincubation was performed in 0.24 mL, followed by addition of 10 μL of 10 mM GTP. Reaction mixtures contained 1.0 mg/mL tubulin, 0.8 M monosodium glutamate, 4% dimethyl sulfoxide and varying drug concentrations. Samples were preincubated for 15 minutes at 30° and chilled on ice. GTP was added to each reaction mixture, and these were placed in cuvettes held at 0°. Baselines were established, the temperature was raised to 30° (at a rate of about 0.5°/sec), and polymerization was followed for 20 minutes. IC50 values were determined by graphical interpolation of experimental points, with drug-containing samples compared to control reaction mixtures containing dimethyl sulfoxide but no drug. At least three independent IC50 values were obtained with each compound.
(§2) The R1 -R3 substituents referred to in Table 1 are with reference to Formula 11, which, for convenience, is reproduced above Table 1. [drawing 13]

tubulin [2] = assay: Inhibition of [3H]colchicine binding to tubulin (DEAE-cellulose filter method); design: species or system bovine; conditions: 5.0 μM [3H]colchicine, 1.0 μM tubulin; for Inhibition of Colchicine Binding % Inhibition ± SD: inhibitor 5.0 μM; for Inhibition of Colchicine Binding % Inhibition ± SD (values in parentheses): inhibitor 50 μM
Description: as §1
The binding of [^3 H]colchicine to tubulin was measured by the DEAE-cellulose filter method as described by Kang et al., "N-acetylcolchinol O-methyl Ether and Thiocolchicine, Potent Analogs of Colchicine Modified in the C Ring: Evaluation of the Mechanistic Basis for Their Enhanced Biological Properties," J. Biol. Chem. 265:10255-1-259 (1990). Reaction mixtures contained 1.0 μM (0.1 mg/mL) tubulin, 1.0 M monosodium glutamate, 0.1 M glucose-1-phosphate, 1.0 mM MgCl2, 1.0 mM GTP, 0.5 mg/mL bovine serum albumin, 5% (v/v) dimethyl sulfoxide, 5.0 μM [^3 H]colchicine and inhibitor at either 5.0 or 50 μM as indicated. These reaction conditions were used because they strongly stabilize the colchicine binding activity of tubulin. The values presented represent averages of three experiments, each with duplicate samples.
as §2

MCF-7 cells = assay: Inhibition of MCF-7 breast cancer cell growth (sulforhodamine B); assay type: cell-based; conditions: Homo sapiens, MCF7; 48 hours drug exposure; ± SD
Description: as §1
IC50 values for inhibition of cell growth were obtained by measuring the amount of total cell protein with the sulforhodamine B assay as described by Skehan et al., "New Colorimetric Cytotoxicity Assay for Anticancer-drug Screening," J. Natl. Cancer Inst., 82:1107-1112 (1990). MCF-7 cells were grown in RPMI 1640 medium containing 17% fetal calf serum, 12 μg/mL gentamicin sulfate and 2 mM glutamine at 37° in 5% CO2. Confluent cells were trypsinized, diluted 40-fold, and seeded into 96-well microtiter plates. After 24 hours of growth without drug, medium with varying concentrations of drug was added to different wells (final concentration of dimethyl sulfoxide, 0.1%). […] The values presented are averages from at least two independent experiments.
as §2

antimitotic activity = assay: Biological activity of isolated curacins; conditions: various tests
cell growth and mitosis = conditions: background; cited from earlier work
[3] = system: colchicine site of tubulin; conditions: background; cited from earlier work
microtubule assembly = conditions: background; cited from earlier work
tubulin [4] = conditions: background; cited from earlier work
β-tubulin = conditions: background; cited from earlier work
microtubule ends = conditions: low concentrations; background; cited from earlier work
brine shrimp = conditions: Example 1 of U.S. Pat. No. 5,324,739; cited from earlier work
[5] = stored neat; cited from earlier work
[6] = Chemical stability on storage neat
[7] = system: 60 different human tumor cell lines; assay: NCI 60-cell line screen / mode of action of curazole; assay type: cell-based; conditions: COMPARE mean-graph profiles / 60-cell line assay
Description: In these examples, curazole was subjected to the drug screening procedure employed by the National Cancer Institute for the screening of drugs having possible anticancer utility. The screening procedure employed a diverse, disease-oriented panel consisting of 60 different human tumor cell lines organized into seven disease-specific subpanels. Curazole was tested over a wide range of concentrations for cytotoxic or growth-inhibitory effects against each cell line comprising the panel. The seven subpanels represented diverse histologies (leukemias, melanomas, and tumors of the lung, colon, kidney, ovary, and brain).
Curazole was tested over a period of several days. During this period the cells were continuously exposed to five log10 -spaced concentrations of the drug starting at about 10^-4 μg/mL. The tests produced 60 individual dose-response curves, one for each cell line (i.e., one for each example).
To produce data for the mean-graph format shown in FIG. 2, a concentration of the extract that produced a target level response was calculated for each cell line. Three different response parameters were evaluated. […] The second response parameter was the total growth inhibition ("TGI"), which is the concentration at which the number of tumor cells remaining at the end of the incubation period substantially equaled the number of tumor cells existing at the start of the incubation period. […]

| Structure (SMILES) | IC50 (tubulin [1]) [nM] | Inhibition of Colchicine Binding % Inhibition ± SD (tubulin [2]) [%] | IC50 (MCF-7 cells) [nM] | biological activity, particularly antimitotic activity (antimitotic activity) | also measured |
| --- | --- | --- | --- | --- | --- |
| CCC[C@@H](CC/C(C)=C/C=C/CC/C=C\[C@@H]1CSC([C@@H]2C[C@@H]2C)=N1)OC [C15,16-dihydro] | 1200 ± 200 | 85 ± 7 | 46 | – | – |
| C=CC[C@@H](CC/C(C)=C/C=C/CC/C=C\[C@@H]1CSC([C@@H]2C[C@@H]2C)=N1)OC [Curacin A] | 720 ± 200 | 94 ± 2 | 38 ± 10 | substantial biological activity, particularly antimitotic activity | inhibition of cell growth and mitosis (cell growth and mitosis): potent inhibitor of cell growth and mitosis; binding at colchicine site of tubulin [3]: binding rapidly and dissociating slowly from tubulin; also recorded: binding rapidly and tightly at the colchicine site of tubulin; inhibition of the binding of colchicine to tubulin [3]: potent competitive inhibitor of the binding of colchicine to tubulin; inhibition of microtubule assembly (microtubule assembly): inhibits microtubule assembly; uncoupled GTPase reaction (tubulin [4]): stimulated the uncoupled GTPase reaction; formation of the cys239-cys354 cross link (β-tubulin): inhibits formation of the cys239-cys354 cross link; tubulin turnover at microtubule ends (microtubule ends): increase tubulin turnover at microtubule ends; effectiveness for reducing a population of arthropods (brine shrimp) (brine shrimp): effectiveness; chemical stability [5]: limited chemical stability; stability ([6]; particularly when stored neat): limited stability; biological activity after storage neat ([6]; stored neat versus stored under a solvent): less biological activity than curacin A stored under a solvent |
| C=CC[C@H](O)CC/C(C)=C/C=C/CC/C=C\[C@@H]1CSC([C@@H]2C[C@@H]2C)=N1 [C13 Hydroxyl] | 870 ± 90 | 82 ± 7 | 450 ± 20 | – | – |
| C=CCC1(CC/C(C)=C/C=C/CC/C=C\[C@@H]2CSC([C@@H]3C[C@@H]3C)=N2)OCCO1 [C13 Ethylene-dioxy] | 780 ± 300 | 92 ± 1 | 30 ± 10 | – | – |
| C=CC[C@H](O)CC/C(C)=C/C=C/CC/C=C\[C@@H]1CSC([C@H]2C[C@@H]2C)=N1 [C13 Hydroxyl, Epi C19] | 730 ± 100 | 71 ± 5 | 610 ± 200 | – | – |
| C=CC[C@@H](CC/C=C/C=C/CC/C=C\[C@@H]1CSC([C@@H]2C[C@@H]2C)=N1)OC [Curacin D] | – | 53 ± 10 | 340 ± 100 | substantial biological activity, particularly antimitotic activity | – |
| C=CC[C@@H](CC/C(C)=C/C=C\CC/C=C\[C@@H]1CSC([C@@H]2C[C@@H]2C)=N1)OC [Curacin B] | – | – | – | substantial biological activity, particularly antimitotic activity | – |
| C=CC[C@@H](CC/C(C)=C/C=C/CC/C=C\[C@@H]1CSC([C@@H]2C[C@@H]2C)=N1)OCOC [C13 Methyl-methoxy] | 640 ± 200 | 81 ± 6 | 220 | – | – |
| C=CC[C@@H](CC/C(C)=C/C=C/CC/C=C\[C@@H]1CSC([C@H]2C[C@@H]2C)=N1)OCOC [C13 Methyl-methoxy, Epi C19] | 3200 ± 300 | 16 ± 3 | 3100 ± 2000 | – | Inhibition of Colchicine Binding % Inhibition ± SD (values in parentheses) (tubulin [2]): 32 ± 4% |
| CCC[C@@H](CC/C(C)=C/C=C/CCCC[C@@H]1CSC([C@@H]2C[C@@H]2C)=N1)OC [C3,4,15,16 Tetrahydro, 3,4,15,16-tetrahydrocuracin A] | 4600 ± 1000 | 1 ± 1 | 3300 ± 2000 | – | Inhibition of Colchicine Binding % Inhibition ± SD (values in parentheses) (tubulin [2]): 28 ± 6% |
| C=CCCc1nc(/C=C\CC/C=C/C=C(\C)CC[C@H](CC=C)OC)cs1 [1-butene derivative] | 920 ± 200 | 83 ± 6 | 300 ± 200 | – | – |
| C=CC[C@@H](CC/C(C)=C/C=C/CC/C=C\c1csc([C@@H]2C[C@@H]2C)n1)OC [Curazole, [13R,19R,21S]-1,2-didehydrocuracin A] | 740 ± 10 | 74 ± 11 | 300 ± 70 | – | mode of action [7]: functions as an antimitotic and has a mode of action similar to a number of conventional antineoplastics |
| C=CC[C@@H](CC/C(C)=C\C=C\CC/C=C\[C@@H]1CSC([C@@H]2C[C@@H]2C)=N1)OC [Curacin C] | – | – | – | substantial biological activity, particularly antimitotic activity | – |
